Assay results taken from ChEMBL document CHEMBL2434948, “Discovery, synthesis, and characterization of an orally bioavailable, brain penetrant inhibitor of mixed lineage kinase 3” (J Med Chem, 2013).
Active and inactive are the calls of the source. The calls are words filed in the database; no cut-off is given here.

Legend:
[1] = molecular target: Mitogen-activated protein kinase 8 (Homo sapiens, UniProt P45983); assay: Inhibition of human wild type JNK1 at 1 uM by qPCR analysis relative to control
Sequence of Mitogen-activated protein kinase 8 (P45983 whole entry): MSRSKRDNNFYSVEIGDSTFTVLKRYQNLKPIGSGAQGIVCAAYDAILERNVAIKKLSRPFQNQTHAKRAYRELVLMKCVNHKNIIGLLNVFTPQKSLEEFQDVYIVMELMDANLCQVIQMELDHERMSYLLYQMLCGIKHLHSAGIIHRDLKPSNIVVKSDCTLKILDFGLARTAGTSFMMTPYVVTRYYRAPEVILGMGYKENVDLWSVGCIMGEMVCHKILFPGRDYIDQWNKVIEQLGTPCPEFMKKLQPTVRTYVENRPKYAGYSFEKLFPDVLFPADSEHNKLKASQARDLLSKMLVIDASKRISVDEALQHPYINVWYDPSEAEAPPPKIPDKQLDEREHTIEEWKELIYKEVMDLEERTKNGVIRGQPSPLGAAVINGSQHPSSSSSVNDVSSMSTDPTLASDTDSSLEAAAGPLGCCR

[2] = molecular target: Insulin-like growth factor 1 receptor (Homo sapiens, UniProt P08069)
Description: Inhibition of wild type human IGF1R by high throughput ATP-[33P] radiolabeled assay

[3] = molecular target: Non-receptor tyrosine-protein kinase TYK2 (Homo sapiens) (UniProt P29597); assay: Inhibition of human wild type TYK2 at 1 uM by qPCR analysis relative to control
[4] = molecular target: Mitogen-activated protein kinase kinase kinase kinase 4 (Homo sapiens) (UniProt O95819); assay: Binding affinity to human wild type MAP4K4 at 1 uM by qPCR analysis
[5] = molecular target: SRSF protein kinase 2 (Homo sapiens) (UniProt P78362); assay: Inhibition of human wild type SRPK2 at 1 uM by qPCR analysis relative to control
Sequence of SRSF protein kinase 2 (Homo sapiens) (P78362 whole entry, looked up): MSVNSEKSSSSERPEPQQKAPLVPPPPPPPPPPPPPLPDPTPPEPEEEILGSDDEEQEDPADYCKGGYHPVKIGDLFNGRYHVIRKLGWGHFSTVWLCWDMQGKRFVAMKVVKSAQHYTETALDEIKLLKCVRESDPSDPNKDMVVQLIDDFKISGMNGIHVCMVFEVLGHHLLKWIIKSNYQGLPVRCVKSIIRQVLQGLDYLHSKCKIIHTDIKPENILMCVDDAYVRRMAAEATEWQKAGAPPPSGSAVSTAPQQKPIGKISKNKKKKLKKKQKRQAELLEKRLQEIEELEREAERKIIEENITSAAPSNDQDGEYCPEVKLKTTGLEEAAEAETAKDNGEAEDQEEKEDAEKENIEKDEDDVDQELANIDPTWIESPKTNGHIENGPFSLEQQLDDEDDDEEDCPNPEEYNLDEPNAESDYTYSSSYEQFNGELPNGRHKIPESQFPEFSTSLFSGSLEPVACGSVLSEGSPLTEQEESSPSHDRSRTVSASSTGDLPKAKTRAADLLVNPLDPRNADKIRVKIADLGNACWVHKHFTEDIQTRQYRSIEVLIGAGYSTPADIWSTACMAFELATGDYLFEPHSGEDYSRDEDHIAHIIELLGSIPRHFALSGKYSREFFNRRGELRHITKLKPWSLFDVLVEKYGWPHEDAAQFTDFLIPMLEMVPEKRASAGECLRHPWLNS

in vivo = conditions: C57BL/6, mouse, po, 10 mg/kg
[6] = molecular target: Mitogen-activated protein kinase 3 (Homo sapiens) (UniProt P27361); assay: Inhibition of human wild type ERK1 at 1 uM by qPCR analysis
Sequence of Mitogen-activated protein kinase 3 (Homo sapiens) (P27361 whole entry): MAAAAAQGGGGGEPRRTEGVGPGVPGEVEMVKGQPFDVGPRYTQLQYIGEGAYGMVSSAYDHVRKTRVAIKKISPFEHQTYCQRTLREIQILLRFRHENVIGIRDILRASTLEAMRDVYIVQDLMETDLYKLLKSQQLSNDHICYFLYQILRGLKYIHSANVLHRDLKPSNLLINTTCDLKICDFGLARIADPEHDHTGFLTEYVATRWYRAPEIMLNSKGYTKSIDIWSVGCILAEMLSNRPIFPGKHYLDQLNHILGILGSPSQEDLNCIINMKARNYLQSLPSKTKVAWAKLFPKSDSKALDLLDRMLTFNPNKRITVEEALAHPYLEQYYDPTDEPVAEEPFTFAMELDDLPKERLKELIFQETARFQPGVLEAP

[7] = molecular target: Hepatocyte growth factor receptor (Homo sapiens, UniProt P08581)
Description: Inhibition of wild type human c-MET by high throughput ATP-[33P] radiolabeled assay

Aurora kinase A = Aurora kinase A (Homo sapiens, UniProt O14965)
Description: Inhibition of wild type human Aurora kinase A by high throughput ATP-[33P] radiolabeled assay

[8] = molecular target: Mitogen-activated protein kinase kinase kinase 11 (Mus musculus, UniProt Q80XI6)
[9] = molecular target: Ribosomal protein S6 kinase alpha-6 (Homo sapiens) (UniProt Q9UK32); assay: Inhibition of human wild type RSK4 at 1 uM by qPCR analysis
Sequence of Ribosomal protein S6 kinase alpha-6 (Homo sapiens) (Q9UK32 whole entry): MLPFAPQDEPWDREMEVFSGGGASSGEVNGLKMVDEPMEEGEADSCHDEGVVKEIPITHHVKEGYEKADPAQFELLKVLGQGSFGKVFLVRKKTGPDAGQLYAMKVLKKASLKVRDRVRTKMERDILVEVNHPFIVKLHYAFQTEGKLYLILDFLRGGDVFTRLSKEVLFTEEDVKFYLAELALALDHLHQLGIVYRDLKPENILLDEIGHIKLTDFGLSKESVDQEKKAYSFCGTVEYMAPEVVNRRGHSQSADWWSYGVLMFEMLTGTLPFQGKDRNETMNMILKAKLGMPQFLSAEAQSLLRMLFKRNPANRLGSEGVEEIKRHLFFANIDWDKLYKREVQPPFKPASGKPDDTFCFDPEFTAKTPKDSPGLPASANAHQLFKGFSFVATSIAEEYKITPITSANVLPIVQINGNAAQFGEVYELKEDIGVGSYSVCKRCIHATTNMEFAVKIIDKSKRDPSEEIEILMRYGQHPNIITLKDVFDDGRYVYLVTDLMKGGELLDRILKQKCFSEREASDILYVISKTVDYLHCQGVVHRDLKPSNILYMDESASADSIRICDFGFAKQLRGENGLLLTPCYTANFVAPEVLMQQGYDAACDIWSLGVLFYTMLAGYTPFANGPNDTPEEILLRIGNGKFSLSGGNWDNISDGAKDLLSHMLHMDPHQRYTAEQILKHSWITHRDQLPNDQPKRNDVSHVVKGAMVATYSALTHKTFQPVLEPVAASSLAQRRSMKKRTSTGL

[10] = molecular target: Cyclin-dependent kinase 1 (Homo sapiens, UniProt P06493)
Description: Inhibition of wild type human CDK1 by high throughput ATP-[33P] radiolabeled assay

[11] = molecular target: T1, Receptor-type tyrosine-protein kinase FLT3 (Homo sapiens, UniProt P36888); assay: cell-based
T1 sequence (P36888 whole entry): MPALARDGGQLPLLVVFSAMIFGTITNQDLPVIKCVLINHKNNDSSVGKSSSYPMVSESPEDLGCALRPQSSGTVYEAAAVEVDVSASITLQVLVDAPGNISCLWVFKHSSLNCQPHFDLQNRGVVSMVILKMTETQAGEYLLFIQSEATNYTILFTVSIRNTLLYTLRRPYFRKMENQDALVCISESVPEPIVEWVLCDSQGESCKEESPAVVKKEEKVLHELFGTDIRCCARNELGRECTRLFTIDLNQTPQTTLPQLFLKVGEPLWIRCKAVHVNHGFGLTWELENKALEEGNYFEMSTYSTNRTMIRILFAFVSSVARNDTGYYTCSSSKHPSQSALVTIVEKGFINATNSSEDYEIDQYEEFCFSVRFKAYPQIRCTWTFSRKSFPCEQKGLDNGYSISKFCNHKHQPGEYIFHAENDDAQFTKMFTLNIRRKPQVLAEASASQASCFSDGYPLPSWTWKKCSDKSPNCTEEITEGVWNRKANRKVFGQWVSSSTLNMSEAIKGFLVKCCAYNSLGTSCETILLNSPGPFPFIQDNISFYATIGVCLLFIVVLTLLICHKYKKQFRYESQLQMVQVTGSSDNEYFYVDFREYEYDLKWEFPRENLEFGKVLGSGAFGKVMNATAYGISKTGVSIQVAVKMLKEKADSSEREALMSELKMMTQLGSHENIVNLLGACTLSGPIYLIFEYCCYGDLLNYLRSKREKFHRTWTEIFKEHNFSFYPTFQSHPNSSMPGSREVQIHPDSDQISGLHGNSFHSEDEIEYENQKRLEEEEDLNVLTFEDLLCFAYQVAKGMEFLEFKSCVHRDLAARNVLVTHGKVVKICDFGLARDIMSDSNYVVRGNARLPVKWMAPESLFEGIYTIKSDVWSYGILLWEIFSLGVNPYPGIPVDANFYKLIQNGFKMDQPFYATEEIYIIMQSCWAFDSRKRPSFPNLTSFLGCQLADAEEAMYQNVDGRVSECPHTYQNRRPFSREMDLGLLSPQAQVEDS
Description: Inhibition of FLT3-L-stimulated wild type full length human FLT3 autophosphorylation expressed in MEF preincubated for 90 mins followed by FLT3-L stimulation measured after 5 mins by ELISA

[12] = molecular target: Serine/threonine-protein kinase B-raf (Homo sapiens) (UniProt P15056); assay: Inhibition of human wild type BRAF at 1 uM by qPCR analysis
Sequence of Serine/threonine-protein kinase B-raf (Homo sapiens) (P15056 whole entry): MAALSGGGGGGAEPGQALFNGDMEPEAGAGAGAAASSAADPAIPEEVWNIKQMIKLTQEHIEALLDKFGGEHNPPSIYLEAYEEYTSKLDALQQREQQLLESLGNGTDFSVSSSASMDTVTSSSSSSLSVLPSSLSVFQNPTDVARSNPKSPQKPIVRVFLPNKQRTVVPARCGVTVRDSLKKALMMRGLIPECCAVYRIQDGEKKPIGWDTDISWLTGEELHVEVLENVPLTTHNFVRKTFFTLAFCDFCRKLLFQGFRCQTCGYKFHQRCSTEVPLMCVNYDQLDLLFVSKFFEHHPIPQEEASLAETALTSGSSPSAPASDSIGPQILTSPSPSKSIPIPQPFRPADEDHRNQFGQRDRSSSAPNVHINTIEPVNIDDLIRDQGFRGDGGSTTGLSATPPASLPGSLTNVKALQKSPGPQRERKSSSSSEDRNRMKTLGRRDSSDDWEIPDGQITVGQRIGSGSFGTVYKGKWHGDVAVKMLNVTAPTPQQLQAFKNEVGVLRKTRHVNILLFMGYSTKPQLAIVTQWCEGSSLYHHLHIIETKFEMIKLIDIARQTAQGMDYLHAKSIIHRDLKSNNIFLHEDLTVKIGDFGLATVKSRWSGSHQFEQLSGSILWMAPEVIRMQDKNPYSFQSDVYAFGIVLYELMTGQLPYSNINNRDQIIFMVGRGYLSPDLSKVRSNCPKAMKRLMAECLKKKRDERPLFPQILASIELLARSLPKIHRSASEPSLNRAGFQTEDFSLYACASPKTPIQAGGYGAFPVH

[13] = molecular target: Epidermal growth factor receptor (Homo sapiens) (UniProt P00533); assay: Inhibition of human wild type EGFR at 1 uM by qPCR analysis
[14] = molecular target: RAC-gamma serine/threonine-protein kinase (Homo sapiens) (UniProt Q9Y243); assay: Inhibition of human wild type AKT3 at 1 uM by qPCR analysis
[15] = molecular target: Mitogen-activated protein kinase 12 (Homo sapiens) (UniProt P53778); assay: Inhibition of human wild type p38g at 1 uM by qPCR analysis
[16] = molecular target: Receptor-type tyrosine-protein kinase FLT3 (Homo sapiens) (UniProt P36888); assay: Inhibition of human wild type FLT3 at 1 uM by qPCR analysis relative to control
[17] = molecular target: Tyrosine-protein kinase receptor UFO (Homo sapiens) (UniProt P30530); assay: Inhibition of human wild type AXL at 1 uM by qPCR analysis relative to control
[18] = molecular target: T2, Tyrosine-protein kinase ABL1 (Homo sapiens, UniProt P00519)
T2 sequence (P00519 whole entry): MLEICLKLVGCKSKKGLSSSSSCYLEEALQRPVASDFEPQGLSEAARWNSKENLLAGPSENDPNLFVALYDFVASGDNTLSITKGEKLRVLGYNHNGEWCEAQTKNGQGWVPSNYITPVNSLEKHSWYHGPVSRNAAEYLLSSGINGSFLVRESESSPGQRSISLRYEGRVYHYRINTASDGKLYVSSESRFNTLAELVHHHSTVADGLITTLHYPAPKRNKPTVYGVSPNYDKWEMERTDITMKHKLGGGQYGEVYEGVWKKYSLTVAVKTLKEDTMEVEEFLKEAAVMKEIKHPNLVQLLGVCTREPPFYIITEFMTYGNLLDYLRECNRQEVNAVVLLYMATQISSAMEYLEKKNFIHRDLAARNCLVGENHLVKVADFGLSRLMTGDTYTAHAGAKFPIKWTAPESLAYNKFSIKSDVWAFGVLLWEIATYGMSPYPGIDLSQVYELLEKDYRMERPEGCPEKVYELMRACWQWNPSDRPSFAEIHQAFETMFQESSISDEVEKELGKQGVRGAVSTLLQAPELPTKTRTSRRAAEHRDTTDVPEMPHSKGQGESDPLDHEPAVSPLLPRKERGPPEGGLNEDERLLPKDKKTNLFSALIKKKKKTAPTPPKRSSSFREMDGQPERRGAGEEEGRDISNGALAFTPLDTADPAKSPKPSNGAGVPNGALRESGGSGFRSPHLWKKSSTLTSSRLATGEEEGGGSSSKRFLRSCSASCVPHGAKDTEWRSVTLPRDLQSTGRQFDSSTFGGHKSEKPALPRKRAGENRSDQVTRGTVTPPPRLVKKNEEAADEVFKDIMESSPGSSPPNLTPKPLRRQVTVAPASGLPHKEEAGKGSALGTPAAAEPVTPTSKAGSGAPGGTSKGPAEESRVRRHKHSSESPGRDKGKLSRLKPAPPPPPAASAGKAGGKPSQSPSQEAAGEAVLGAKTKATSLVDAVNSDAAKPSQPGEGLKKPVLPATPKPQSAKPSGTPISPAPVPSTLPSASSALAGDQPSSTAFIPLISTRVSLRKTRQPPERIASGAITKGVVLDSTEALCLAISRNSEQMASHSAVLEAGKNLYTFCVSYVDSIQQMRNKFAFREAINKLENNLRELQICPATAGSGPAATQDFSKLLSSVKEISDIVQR
Description: Inhibition of wild type human ABL1 by high throughput ATP-[33P] radiolabeled assay

[19] = molecular target: Glycogen synthase kinase-3 beta (Homo sapiens, UniProt P49841)
Sequence of Glycogen synthase kinase-3 beta (P49841 whole entry): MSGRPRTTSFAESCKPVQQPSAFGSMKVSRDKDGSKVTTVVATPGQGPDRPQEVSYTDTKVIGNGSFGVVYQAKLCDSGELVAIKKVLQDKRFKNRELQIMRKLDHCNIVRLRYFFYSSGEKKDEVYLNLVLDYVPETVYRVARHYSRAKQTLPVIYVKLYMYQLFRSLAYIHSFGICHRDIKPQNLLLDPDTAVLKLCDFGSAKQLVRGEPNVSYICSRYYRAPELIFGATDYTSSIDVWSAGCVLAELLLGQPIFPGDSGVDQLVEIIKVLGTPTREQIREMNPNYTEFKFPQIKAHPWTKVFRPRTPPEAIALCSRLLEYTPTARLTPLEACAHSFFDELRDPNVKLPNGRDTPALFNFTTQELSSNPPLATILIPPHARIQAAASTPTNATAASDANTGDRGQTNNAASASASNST
Description: Inhibition of wild type human GSK3B by high throughput ATP-[33P] radiolabeled assay

[20] = molecular target: Mitogen-activated protein kinase 13 (Homo sapiens) (UniProt O15264); assay: Inhibition of human wild type p38d at 1 uM by qPCR analysis
[21] = molecular target: Rho-associated protein kinase 1 (Homo sapiens, UniProt Q13464); conditions: 1 uM
Description: Inhibition of human wild type ROCK1 at 1 uM by qPCR analysis relative to control

Aurora kinase C = Aurora kinase C (Homo sapiens, UniProt Q9UQB9)
Description: Inhibition of wild type human Aurora kinase C kinase by high throughput ATP-[33P] radiolabeled assay

[22] = molecular target: Dual specificity protein kinase CLK1 (Homo sapiens) (UniProt P49759); assay: Inhibition of human wild type CLK1 at 1 uM by qPCR analysis relative to control
Sequence of Dual specificity protein kinase CLK1 (Homo sapiens) (P49759 whole entry, looked up): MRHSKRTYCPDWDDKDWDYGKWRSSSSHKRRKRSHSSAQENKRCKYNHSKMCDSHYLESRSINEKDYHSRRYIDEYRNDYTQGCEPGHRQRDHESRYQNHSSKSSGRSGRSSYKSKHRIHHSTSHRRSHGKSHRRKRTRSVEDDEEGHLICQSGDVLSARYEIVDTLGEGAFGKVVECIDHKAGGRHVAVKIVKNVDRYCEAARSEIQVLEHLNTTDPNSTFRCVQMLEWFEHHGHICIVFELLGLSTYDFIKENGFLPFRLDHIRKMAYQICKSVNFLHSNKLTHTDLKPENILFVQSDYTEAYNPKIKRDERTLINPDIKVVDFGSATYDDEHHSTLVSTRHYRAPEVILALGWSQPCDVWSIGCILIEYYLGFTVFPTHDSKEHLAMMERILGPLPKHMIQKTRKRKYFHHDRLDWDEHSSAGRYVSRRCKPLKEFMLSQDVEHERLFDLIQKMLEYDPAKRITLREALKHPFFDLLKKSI

[23] = molecular target: T2, Tyrosine-protein kinase ABL1; assay: Inhibition of human wild type ABL1 at 1 uM by qPCR analysis relative to control
[24] = molecular target: Mitogen-activated protein kinase 11 (Homo sapiens) (UniProt Q15759); assay: Inhibition of human wild type p38b at 1 uM by qPCR analysis
[25] = molecular target: T1, Receptor-type tyrosine-protein kinase FLT3
Description: Inhibition of wild type human FLT3 by high throughput ATP-[33P] radiolabeled assay

[26] = molecular target: Dual specificity protein kinase CLK4 (Homo sapiens) (UniProt Q9HAZ1); assay: Inhibition of human wild type CLK4 at 1 uM by qPCR analysis relative to control
[27] = molecular target: Tyrosine-protein kinase SYK (Homo sapiens, UniProt P43405)
Description: Inhibition of wild type human SYK by high throughput ATP-[33P] radiolabeled assay

CN1CCN(Cc2ccc(-c3cnc4[nH]cc(-c5ccc6[nH]ccc6c5)c4c3)cc2)CC1
inhibition [1]: 99%
IC50 [2]: 307 nM
inhibition [3]: > 90%
inhibition [4]: Active
inhibition [5]: > 90%
Tmax (in vivo): 4 h
inhibition [6]: inactive
IC50 [7]: 177 nM
IC50 (Aurora kinase A): 108 nM
IC50 [8]: 460 nM
inhibition [9]: inactive
IC50 [10]: 1130 nM
IC50 [11]: 560 nM
inhibition [12]: inactive
inhibition [13]: inactive
inhibition [14]: inactive
inhibition [15]: inactive
inhibition [16]: > 90%
inhibition [17]: > 90%
IC50 [18]: 6.8 nM
IC50 [19]: > 10000 nM
inhibition [20]: inactive
inhibition [21]: > 90%
IC50 (Aurora kinase C): 290 nM
inhibition [22]: > 90%
inhibition [23]: > 90%
inhibition [24]: inactive
IC50 [25]: 4 nM
inhibition [26]: > 90%
IC50 [27]: 731 nM
